Source: article PMC12643354, “From Oxygen to Tellurium: The Impact of the Chalcogen on Nucleophilicities and Basicities of Isochalcogenourea Catalysts” (Angewandte Chemie (International Ed. in English), 2025)

Experiments:
Type in all cases: physicochemical
[1] = Kinetics of IChU reactions with reference electrophile (mor)2CH+ (stopped-flow photometry); conditions: E = −5.53, dichloromethane, 20 °C
From the text: (§1) In order to systematically investigate the influence of the chalcogen atom on the nucleophilicity of DHPB‐derived IChUs (Ch = O, S, Se, and Te), we utilized Mayr's benzhydrylium methodology.^[ [107] ^]
(§2) In accordance with observations in previous studies on ITU reactivity,^[ [119] ^] mixing the strongly colored benzhydrylium tetrafluoroborates 18 with excess IChUs in dichloromethane gave rise to decolorization of the solutions due to the formation of isochalcogenouronium tetrafluoroborates 19, which are colourless (Figure 3a). […] To establish pseudo first‐order conditions and to secure a sufficient decay of the benzhydrylium's absorbance during the course of the reactions, the IChUs were employed at higher concentrations than the benzhydrylium ions. First‐order rate constants k obs (s^−1) were determined by fitting the mono‐exponential decay function in Equation (2) to the decreasing absorbance (A) of 18 during their reaction with the IChUs as exemplified for the reaction of ITeU3 with (ind)2CH^+ in Figure 3b. […]
(§3) First‐order rate constants k obs correlated linearly with the IChU concentration. Therefore, second‐order rate constants k 2 (L mol^−1 s^−1) were determined from the slope of the linear regression curves (Figure 3c ^[ [95] ^]). […]

[2] = Kinetics of IChU reactions with reference electrophile (mpa)2CH+ (stopped-flow photometry); conditions: E = −5.89, dichloromethane, 20 °C
From the text: as §1, §2, §3

[3] = Mayr nucleophilicity parameters N and sN (benzhydrylium methodology, Mayr-Patz equation); conditions: dichloromethane, 20 °C
From the text: (1) Mayr-Patz Equation: lgk20^∘C=sN(N+E)
The MPE is a linear‐free‐energy relationship that characterizes electrophiles by the electrophilicity parameter E and nucleophiles by the solvent‐dependent parameters N (nucleophilicity) and s N (sensitivity toward changes in the electrophile reactivity). By using the MPE (Equation (1)), the construction of comprehensive nucleophilicity and electrophilicity scales becomes possible, which facilitate the comparison of various classes of Lewis base organocatalysts.^[ [110], [111], [112], [113], [114], [115], [116], [117], [118], [119], [120] ^]
as §1
Figure 4 illustrates the linear correlations of the second‐order rate constants (lg k 2) with the electrophilicities E of Ar2CH^+ (18), which makes it possible to determine the Mayr nucleophilicity parameters N (and s N) for the DHPB‐derived IChUs IU3, ITU3, ISeU3, and ITeU3. […]
Figure 4 Linear correlations of second‐order rate constants (lg k 2) for the reactions of IU3, ITU3, ISeU3, and ITeU3 with Ar2CH^+ 18 (in dichloromethane at 20 °C) with the electrophilicities E of 18. The slopes of the linear correlations equal the nucleophile‐dependent sensitivity parameter s N. Intercepts on the abscissa reflect the nucleophilicity parameter N (N = –E at lg k 2 = 0).

[4] = Kinetics of IChU reactions with reference electrophile (dpa)2CH+ (stopped-flow photometry); conditions: E = −4.72, dichloromethane, 20 °C
From the text: as §1, §2, §3

[5] = Kinetics of IChU reactions with reference electrophile (thq)2CH+ (stopped-flow photometry); conditions: E = −8.22, dichloromethane, 20 °C
From the text: as §1, §2, §3

[6] = Kinetics of IChU reactions with reference electrophile (lil)2CH+ (stopped-flow photometry); conditions: E = −10.04, dichloromethane, 20 °C
From the text: as §1, §2, §3

Structure (SMILES) | Second-order rate constant k2 exptl [1] [M⁻¹ s⁻¹] | Second-order rate constant k2 exptl [2] [M⁻¹ s⁻¹] | Nucleophile-specific sensitivity parameter sN [3] | Nucleophilicity parameter N [3] | Second-order rate constant k2 exptl [4] [M⁻¹ s⁻¹] | Second-order rate constant k2 exptl [5] [M⁻¹ s⁻¹] | Second-order rate constant k2 exptl [6] [M⁻¹ s⁻¹]
c1ccc2c(c1)OC1=NCCCN12 [IU3, ODHPB] | 185000 | 129000 | 0.69 | 13.31 | 896000 |  | 
c1ccc2c(c1)[Se]C1=NCCCN12 [ISeU3, SeDHPB] |  | 1.16e+06 | 0.66 | 15.16 |  | 38100 | 1980
